Target: T1, Mitochondrial peptide methionine sulfoxide reductase (Bos taurus, UniProt P54149)
T1 sequence (P54149 whole entry): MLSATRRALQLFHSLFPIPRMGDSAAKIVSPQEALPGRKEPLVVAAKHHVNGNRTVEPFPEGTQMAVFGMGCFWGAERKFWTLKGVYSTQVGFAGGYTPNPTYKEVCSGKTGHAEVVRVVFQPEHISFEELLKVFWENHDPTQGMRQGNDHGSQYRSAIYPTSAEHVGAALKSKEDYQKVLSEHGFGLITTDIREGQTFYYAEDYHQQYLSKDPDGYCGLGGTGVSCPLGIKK

`Cc1cccc(Nc2oc3cc(=O)ccc-3cc2C(N)=O)c1` [(2Z)-7-hydroxy-2-[(3-methylphenyl)imino]-2H-chromene-3-carboxamide] was tested. Which IC50 did it give?
Its IC50 is greater than 155 µM.

Which IC50 does the source give for `O=C(N/N=C/c1ccc2c(c1)OCO2)c1ccc(Br)o1` [SMR000185016] here?
The IC50 was greater than 155 µM.

`CCOc1cc(S(=O)(=O)N(CC)CC)c(OCC)cc1-n1cnnn1` [2,5-diethoxy-N,N-diethyl-4-(1,2,3,4-tetrazol-1-yl)benzenesulfonamide] was tested. Which IC50 did it give?
Its IC50 is greater than 155 µM.

With `COC(=O)c1ccc(S(=O)(=O)N2CCCN(Cc3cccc(Br)c3F)CC2)n1C` [5-[[4-[(3-bromo-2-fluorophenyl)methyl]-1,4-diazepan-1-yl]sulfonyl]-1-methyl-2-pyrrolecarboxylic acid methyl ester] as the molecule, how does the IC50 read?
Its IC50 is greater than 155 µM.

For `Cn1c2c(c(=O)n(C)c1=O)C(C(F)(F)F)(C(F)(F)F)NC(C1CCCCC1)=N2` [SMR000219726], which IC50 is on record?
Its IC50 is greater than 155 µM.

With `C#Cc1cccc(Nc2nc(NCCOC)nc3ccsc23)c1` [4-N-(3-ethynylphenyl)-2-N-(2-methoxyethyl)thieno[3,2-d]pyrimidine-2,4-diamine] as the molecule, how does the IC50 read?
Its IC50 is greater than 155 µM.

With `O=C1C(Cl)=C(NCCCN2CCOCC2)C(=O)N1CCc1ccccc1` [3-chloro-4-{[3-(4-morpholinyl)propyl]amino}-1-(2-phenylethyl)-1H-pyrrole-2,5-dione] as the molecule, how does the IC50 read?
The IC50 was greater than 155 µM.

For `Cc1ccc(S(=O)(=O)NCCNc2ccc([N+](=O)[O-])cc2C(F)(F)F)cc1` [4-methyl-N-(2-{[4-nitro-2-(trifluoromethyl)phenyl]amino}ethyl)benzenesulfonamide], which IC50 is on record?
Its IC50 is greater than 155 µM.

`COc1ccccc1-c1[nH]nc2c1[C@H](C)CC[C@H]2C(C)C` [(4R,7S)-3-(2-methoxyphenyl)-4-methyl-7-propan-2-yl-4,5,6,7-tetrahydro-1H-indazole] was tested. Which IC50 did it give?
Its IC50 is greater than 155 µM.

For `N#CC1C(=N)Oc2c(O)cc3ccccc3c2C1c1ccsc1` (stereo not given) [3-amino-5-hydroxy-1-(3-thiophenyl)-1H-benzo[f][1]benzopyran-2-carbonitrile], which IC50 is on record?
Its IC50 is greater than 155 µM.

How did the IC50 turn out when `CCOC(=O)C(C#N)C=Nc1ccccc1OC` (stereo not given) [MLS000568396] was run?
The IC50 was greater than 155 µM.

Which IC50 does the source give for `O=C(N/N=C/c1sc(N2CCOCC2)nc1-c1ccccc1)c1ccc(O)cc1` [MLS000336683] here?
The IC50 was greater than 155 µM.

How did the IC50 turn out when `Cc1nonc1C1CCCN1Cc1c[nH]nc1-c1ccc(-c2ccccc2)cc1` (stereo not given) [SMR000316348] was run?
The IC50 was greater than 155 µM.

Which IC50 does the source give for `CC(=O)N1N=C(c2ccncc2)OC1(Cc1ccccc1)Cc1ccccc1` here?
Its IC50 is greater than 155 µM.

`CCSc1nc(N2CCOCC2)c2c(c1C#N)CCCC2` [3-(ethylthio)-1-(4-morpholinyl)-5,6,7,8-tetrahydroisoquinoline-4-carbonitrile] was tested. Which IC50 did it give?
Its IC50 is greater than 155 µM.

`Cc1cc([N+](=O)[O-])ccc1Nc1nc2ccccc2n2cnnc12` [N-(2-methyl-4-nitrophenyl)[1,2,4]triazolo[4,3-a]quinoxalin-4-amine] was tested. Which IC50 did it give?
The IC50 was greater than 155 µM.

Which IC50 does the source give for `CC(=O)COc1ccc2oc(=O)cc(-c3cc4ccccc4o3)c2c1` [SMR000641655] here?
Its IC50 is greater than 155 µM.

For `CC(N=O)c1cc(C(C)(C)C)c(O)c(C(C)(C)C)c1` (stereo not given), which IC50 is on record?
The IC50 was greater than 155 µM.

With `COc1ccc(/C=N/NC(=O)c2cc3cc(OC)c(OC)cc3[nH]2)cc1` as the molecule, how does the IC50 read?
Its IC50 is greater than 155 µM.

How did the IC50 turn out when `Cc1c(O)ccc2c(-c3ccccc3)cc(=O)oc12` [7-hydroxy-8-methyl-4-phenyl-1-benzopyran-2-one] was run?
The IC50 was greater than 155 µM.

`O=C(O)c1cccc(N=NCc2sc(N3CCOCC3)nc2-c2ccccc2)c1` [3-[(2E)-2-[(2-morpholin-4-yl-4-phenyl-1,3-thiazol-5-yl)methylidene]hydrazinyl]benzoic acid] was tested. Which IC50 did it give?
Its IC50 is greater than 155 µM.

Which IC50 does the source give for `CC1(C)C2CCC(CN=C(N)CSS(=O)(=O)O)C1C2` (stereo not given) [SMR001821892] here?
The IC50 was greater than 155 µM.

With `[O-][N+]1=c2ccc(Nc3ccccc3)cc2=NC12CCCCC2` [1-oxido-N-phenyl-5-spiro[benzimidazol-1-ium-2,1'-cyclohexane]amine] as the molecule, how does the IC50 read?
Its IC50 is greater than 155 µM.

Which IC50 does the source give for `N#CCCSc1nc(N2CCOCC2)c2c(c1C#N)CCCC2` [3-(2-cyanoethylthio)-1-(4-morpholinyl)-5,6,7,8-tetrahydroisoquinoline-4-carbonitrile] here?
Its IC50 is greater than 155 µM.

With `O=C(O)Cc1sc(N=NC=CCc2ccccc2)nc1O` [SMR000236709] as the molecule, how does the IC50 read?
The IC50 was 118 µM.

Reference: BindingDB's records for doi:10.7270/Q2639NCQ (The Scripps Research Institute Molecular Screening Center, 2013)
